# Reference: PubChem BioAssay AID540271 (Broad Institute, 2011)
# Active and inactive are the calls of the source. How the calls were made is not given here.
# System: S. cerevisiae expressing PfHSP40, growth rescue, plate reader
# Assay: S cerevisiae expressing PfHSP40, growth rescue, cherry pick dose confirmatory, plate reader (AID 540271);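 further: yeast growth read after three days of incubation at 30 °C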
row,Compound,AC50
1,CCN(CC)C(=O)CSc1ncnc2sc(-c3ccccc3)cc12,8.72 µM
2,O=c1cc(CSc2ccc(Cl)cc2)nc(-c2ccccn2)[nH]1,4.13 µM
3,CC1(C)C2CCC1(C)C(OC(=O)c1ccc(O)cc1)C2 (stereo not given),4.38 µM
4,CSC(=S)N/N=C/c1ccccc1,5.83 µM
5,COc1cc(OC)c(-c2c3cc(O)c(=O)cc-3oc3cc(O)c(O)cc23)cc1OC,1.67 µM
6,O=S(=O)(c1ccc(Cl)cc1)N1CCC2(CC1)OCCN2S(=O)(=O)c1cccs1,4.77 µM
7,Cc1cccc2sc(NNC(=O)c3ccc(S(=O)(=O)N4CCCC(C)C4)cc3)nc12 (stereo not given),2.81 µM
8,O=[N+]([O-])c1ccc(-c2nc(-c3cccs3)c(-c3cccs3)[nH]2)cc1,4.2 µM
9,CCN(CC)c1ccc(/C=N/NC(=O)c2c(Cl)cnn2C)c(O)c1,4.78 µM
10,O=C1OC(c2ccccc2)=NC12CC2c1ccc(Cl)cc1 (stereo not given),2.2 µM
11,C=CCN(CC=C)C(=S)NC(=O)c1ccc(C)c(Br)c1,6.72 µM
12,O/N=C/c1cc(Br)ccc1OCc1ccccc1F,4.76 µM
13,Cc1cc([N+](=O)[O-])c(NC2CCCCC2)c([N+](=O)[O-])c1,9.82 µM
14,CC(C)C(=O)NC(c1ccco1)c1ccc2cccnc2c1O (stereo not given),4.51 µM
15,COc1ccc(-c2cc(C(=O)N3CCN(c4ccccc4F)CC3)c3ccccc3n2)c(OC)c1,5.68 µM
16,O=C(CSc1ccc(-c2ccccn2)nn1)NCc1ccc(F)cc1,4.86 µM
17,COc1cc([N+](=O)[O-])cc(/C=N/NC(=O)c2cncc(Br)c2)c1O,4.36 µM
18,CC1CC(C)CN(C(=O)c2cccc(S(=O)(=O)Nc3cc(C(F)(F)F)ccc3Cl)c2)C1 (stereo not given),5.69 µM
19,O=C(c1ccccc1)c1ccc(Cn2cc(-c3ccccc3)nn2)cc1,4.34 µM
20,CC1(S(=O)(=O)O)CC(=O)c2ccccc2C1=O (stereo not given),> 12 µM (inactive)
21,c1ccc(-c2ccc(OCCCn3cncn3)cc2)cc1,5.48 µM
22,O=C(COc1ccccc1F)Nc1nc(-c2ccccn2)cs1,5.52 µM
23,CC(C)c1cc(-c2cc(C(=O)NCc3ccccc3)on2)nc(NCC2CC2)n1,5.24 µM
24,C=CCNC(=S)N1CCC(Cc2ccccc2)CC1,11.3 µM

row,Compound,AC50
1,O=C(NCc1ccncc1)c1ccccc1Nc1ccc(SC(F)F)cc1,5.31 µM
2,CC1CCCCC1NC(=O)/C(C#N)=C/c1ccccc1F (stereo not given),5.7 µM
3,CNc1ccc2oc(C[C@H]3O[C@@]4(CC[C@H]3C)O[C@H]([C@H](C)C(=O)c3ccc[nH]3)[C@H](C)C[C@H]4C)nc2c1C(=O)O,0.662 µM
4,O=c1[nH]c(=O)n(C2OC(CO)C(O)C2O)cc1F (stereo not given),5.04 µM
5,COC(=O)c1cccc2c1-c1ccccc1/C2=N/O,4.95 µM
6,O=C1c2ccccc2NC(c2ccc(-c3ccc(F)cc3)o2)N1O (stereo not given),8.42 µM
7,COc1cccc(-n2nc(C#N)c(Cl)cc2=O)c1,5.59 µM
8,O=C(C1=C(Nc2ccccc2)c2ccccc2S(=O)(=O)N1)c1ccccc1,5.09 µM
9,CCn1nc(/C=C/c2ccccc2)nc2c(=O)n(C)c(=O)nc1-2,2.36 µM
10,CCCCCOc1ccc(CSc2n[nH]c(C)n2)cc1,3.81 µM
11,O=C(Sc1cccc2cccnc12)c1ccccc1Br,6.63 µM
12,CCCCC(=O)NC(c1ccc(OC)c(OC)c1)c1ccc2cccnc2c1O (stereo not given),1.83 µM
13,Cc1ccccc1OCC(O)Cn1c2ccccc2c2ccccc21 (stereo not given),4.74 µM
14,CCCCC(=O)NC(=S)NNC(=O)CCc1ccccc1,5.21 µM
15,O=C(C=Cc1cccc(O)c1)c1ccccc1O,2.1 µM
16,O=Nc1c(O)n(Cc2ccc(Cl)c(Cl)c2)c2ccccc12,6.59 µM
17,COc1cccc(/C=N/NC(=O)c2nc(-c3ccccc3)cc(-c3ccccc3)n2)c1O,3.51 µM
18,COc1cc(C(=O)ON=C2C3CC4CC(C3)CC2C4)cc(OC)c1OC,5.01 µM
19,Cc1cc(-c2ccccc2)n(-c2cc(N/N=C/c3ccccc3O)ncn2)n1,5.77 µM
20,CCOC(=O)N1C(=O)C2(CCCCC2)N(c2ccccc2Cl)C1=S,0.084 µM
21,CC12CC3(C)CC(C)(C1)CC(NC(=O)N1CCCC1)(C2)C3,1.7 µM
22,O=c1c2ccccc2nc(-c2cccc(Cl)c2)n1O,3.21 µM
23,Nc1cc2nc3ccccc3oc-2cc1=O,1.52 µM
24,CC(C)CN=Cc1c(O)c([N+](=O)[O-])cc2oc3c(c12)CCCC3,1.33 µM

row,Compound,AC50
1,COc1ccc(OC)c2c1C(=O)C(Cl)=C(Cl)C2=O,1.4 µM
2,CC(=O)C1=C(c2cccc([N+](=O)[O-])c2)N(C(C)=O)n2c(C)nnc2S1,2.7 µM
3,Cc1ccccc1Oc1nc(-c2ccccn2)nc2ccccc12,2.29 µM
4,[O-][n+]1cccc2c(Br)cc(Br)c(O)c21,2.69 µM
5,CC(=O)NC(c1ccc(C)cc1)c1cc([N+](=O)[O-])c2cccnc2c1O (stereo not given),8.83 µM
6,Cc1ccc(COc2ccc(Br)cc2/C=N/O)cc1,7.92 µM
7,CCCCC(=O)NC(c1ccc(N(C)C)cc1)c1ccc2cccnc2c1O (stereo not given),1.65 µM
8,CCOC(=O)N1CCN(S(=O)(=O)c2ccc(C(=O)NNc3nc4ccc(Cl)cc4s3)cc2)CC1,5.51 µM
9,COc1ccc(C2=CC(=O)C[C@H](c3ccc4c(c3)OCO4)C2)cc1,6.93 µM
10,O=C(N/N=C/c1sc(N2CCOCC2)nc1-c1ccccc1)c1ccccc1O,6.17 µM
11,COc1ccc(-c2oc3ccccc3c2C#Cc2cncn2C)cc1,4.94 µM
12,Cc1cc(/C=C2\SC(=S)NC2=O)c(C)n1-c1cccc(O)c1,9.83 µM
13,Cc1ccc(-n2nnnc2C(Cl)c2nnnn2-c2ccc(C)cc2)cc1,3.4 µM
14,O=[N+]([O-])c1cccc(-c2cc(-c3cc(Br)ccc3O)[nH]n2)c1,5.44 µM
15,C=C1C(=O)C23CCC4C(C)(C(=O)OC)CCCC4(C)C2CCC1(O)C3 (stereo not given),11.6 µM
16,C=CS(=O)(=O)c1sc(Cl)c(N2CCOCC2)c1[N+](=O)[O-],1.91 µM
17,O=C(CSc1ccc(-c2ccccn2)nn1)NC1CCCC1,11.1 µM
18,CCC(=O)NC(c1cc(Cl)c2cccnc2c1O)C(C)C (stereo not given),5.29 µM
19,NNC(=O)c1ccc2nc(-c3ccc(Br)cc3)cn2c1,6.47 µM
20,CC/C(=N/NC(=O)c1ccccc1O)c1c(C)[nH]n(-c2ccccc2)c1=O,0.705 µM
21,CCn1c2ccc(C)cc2c2nc3cc(C(=O)O)ccc3nc21,2.57 µM
22,O=C1N(c2ccc(Cl)cc2)C(c2cccnc2)N2CCCN12 (stereo not given),6.03 µM
